Source: patent publication US20250215016A1, “ISOXAZOLE-HETEROCYCLIC DERIVATIVE, PHARMACEUTICAL COMPOSITION AND USE” (SHANGHAI SIMR BIOTECHNOLOGY CO., LTD, priority 2022, published 2025)

biological target: α5-GABAA receptor (Homo sapiens (Human), UniProt P18507+P31644); assay: Whole-cell patch clamp electrophysiology, inverse regulation activity in α5β3γ2-HEK293 cells; type: cell-based; conditions: compound 100 nM; GABA 0.05-0.06 μM (about EC7-8); clamped at −60 mV; read-out: Inverse regulation efficiency to α5-GABAA receptor
Method in brief: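 HEK293 cells expressing α5β3γ2 recorded whole-cell at −60 mV holding potential, GABA 0.05-0.06 μM (about EC7-8) applied, then compound at 100 nM final with GABA. pH 7.4 extracellular, CsCl-based pipette solution. Inverse regulation efficiency = (Itreatment−Igaba)/(Igaba−Iprebaseline)×100%.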

Sequence of α5-GABAA receptor (P31644 32-462): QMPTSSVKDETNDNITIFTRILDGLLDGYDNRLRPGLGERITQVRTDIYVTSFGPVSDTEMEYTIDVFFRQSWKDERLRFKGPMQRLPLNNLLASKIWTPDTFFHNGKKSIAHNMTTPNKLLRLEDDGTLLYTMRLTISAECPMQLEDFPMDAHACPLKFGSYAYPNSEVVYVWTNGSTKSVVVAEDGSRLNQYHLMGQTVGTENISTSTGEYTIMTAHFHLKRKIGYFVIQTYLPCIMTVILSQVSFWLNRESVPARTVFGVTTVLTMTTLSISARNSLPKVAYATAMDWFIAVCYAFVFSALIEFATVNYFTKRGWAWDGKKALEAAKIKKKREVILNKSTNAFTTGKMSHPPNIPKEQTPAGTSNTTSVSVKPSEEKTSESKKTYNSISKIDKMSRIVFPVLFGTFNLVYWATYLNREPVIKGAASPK
Sequence of α5-GABAA receptor (P28472 26-473 partner): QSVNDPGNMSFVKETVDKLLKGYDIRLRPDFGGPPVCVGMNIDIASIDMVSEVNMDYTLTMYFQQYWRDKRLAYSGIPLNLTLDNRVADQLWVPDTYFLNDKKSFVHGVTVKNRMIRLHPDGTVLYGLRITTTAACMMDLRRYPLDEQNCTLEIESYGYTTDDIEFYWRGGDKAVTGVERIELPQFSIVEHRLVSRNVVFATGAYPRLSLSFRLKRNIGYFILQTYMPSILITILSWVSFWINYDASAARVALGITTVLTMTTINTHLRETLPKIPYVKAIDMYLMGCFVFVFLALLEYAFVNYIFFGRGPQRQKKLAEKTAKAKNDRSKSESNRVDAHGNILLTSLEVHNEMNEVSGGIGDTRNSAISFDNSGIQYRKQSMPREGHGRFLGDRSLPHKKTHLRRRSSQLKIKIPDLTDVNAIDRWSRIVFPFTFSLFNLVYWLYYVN
Sequence of α5-GABAA receptor (P18507 other isoform, or with tags, fused parts or gaps): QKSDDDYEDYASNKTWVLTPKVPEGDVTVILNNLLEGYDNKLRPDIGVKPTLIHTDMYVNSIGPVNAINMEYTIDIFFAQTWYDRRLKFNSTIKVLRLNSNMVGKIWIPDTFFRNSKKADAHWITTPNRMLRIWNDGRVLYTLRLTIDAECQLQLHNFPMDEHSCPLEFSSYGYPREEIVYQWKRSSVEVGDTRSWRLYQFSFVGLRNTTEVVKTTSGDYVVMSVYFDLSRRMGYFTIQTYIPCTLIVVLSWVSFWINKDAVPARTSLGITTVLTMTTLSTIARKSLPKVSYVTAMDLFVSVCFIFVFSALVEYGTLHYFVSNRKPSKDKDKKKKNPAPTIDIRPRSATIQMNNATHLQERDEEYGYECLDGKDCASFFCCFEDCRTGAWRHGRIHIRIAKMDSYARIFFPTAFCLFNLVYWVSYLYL

| inhibition at 0.1 µM [%] | SMILES |
| --- | --- |
| 57 | Cc1onc(-c2ccc(F)cc2)c1COc1ccc(-c2nnc3n2CCOC3)nn1 [Compound 18, 3-(6-((3-(4-fluorophenyl)-5-methylisoxazol-4-yl)methoxy)pyridazin-3-yl)-5,6-dihydro-8H-[1,2,4]triazolo[3,4-c][1,4]oxazine] |
| 54 | Cc1onc(-c2ccc(F)cc2)c1COc1cnc(-c2nnc3n2CCOC3)cn1 [Compound 19, 3-(5-((3-(4-fluorophenyl)-5-methylisoxazol-4-yl)methoxy)pyrazin-2-yl)-5,6-dihydro-8H-[1,2,4]triazolo[3,4-c][1,4]oxazine] |
| 45 | Cc1onc(-c2ccc(F)cc2)c1COc1cnc(-c2nnc3n2CCC3)cn1 [Compound 23, 4-(((5-(6,7-dihydro-5H-pyrrolo[2,1-c][1,2,4]triazol-3-yl)pyrazin-2-yl)oxy)methyl)-3-(4-fluorophenyl)-5-methylisoxazole] |
| 44 | Cc1onc(-c2ccc(F)cc2)c1COc1cnc(-c2nnc3n2CCCOC3)cn1 [Compound 24, 3-(5-((3-(4-fluorophenyl)-5-methylisoxazol-4-yl)methoxy)pyrazin-2-yl)-6,7-dihydro-5H,9H-[1,2,4]triazolo[3,4-c][1,4]oxazepane] |
| 48 | Cc1onc(-c2ccc(F)cc2)c1COc1cnc(-c2nnc3n2CCOCC3)cn1 [Compound 33, 3-(5-((3-(4-fluorophenyl)-5-methylisoxazol-4-yl)methoxy)pyrazin-2-yl)-5,6,8,9-tetrahydro-[1,2,4]triazolo[4,3-d][1,4]oxazepane] |

Further lines, the compound ahead of its results:

| SMILES | inhibition at 0.1 µM [%] |
| --- | --- |
| Cc1onc(-c2ccc(F)cc2)c1COc1ccc(-c2nnc3n2CCS(=O)(=O)C3)cn1 [Compound 7, 3-(6-((3-(4-fluorophenyl)-5-methylisoxazol-4-yl)methoxy)pyridin-3-yl)-5,6-dihydro-8H-[1,2,4]triazolo[3,4-c][1,4]thiazine 7,7-dioxide] | 37 |
| Cc1onc(-c2ccc(F)cc2)c1COc1ccc(N2CCN3CCNC(=O)C3C2)nn1 (centres unmarked) [Compound 10, 8-(6-((3-(4-fluorophenyl)-5-methylisoxazol-4-yl)methoxy)pyridazin-3-yl) hexahydro-2H-pyrazino[1,2-a]pyrazin-1 (6H)-one] | 66 |
| Cc1onc(-c2ccc(F)cc2)c1COc1ccc(-c2nnc3n2CCOC3)cn1 [Compound 17, 3-(6-((3-(4-fluorophenyl)-5-methylisoxazol-4-yl)methoxy)pyridin-3-yl)-5,6-dihydro-8H-[1,2,4]triazolo[3,4-c][1,4]oxazine] | 49 |
| Cc1onc(-c2ccc(F)cc2)c1COc1ccc(N2CCn3ccnc3C2=O)nn1 [Compound 37, 7-(6-((3-(4-fluorophenyl)-5-methylisoxazol-4-yl)methoxy)pyridazin-3-yl)-6,7-dihydroimidazo[1,2-a]pyrazin-8(5H)-one] | 54 |
| Cc1onc(-c2ccc(F)cc2)c1COc1ccc(-c2cc3n(c(=O)n2)C[C@]24CO[C@H](CN32)C4)cn1 [Compound 38] | 56 |
| Cc1onc(-c2ccc(F)cc2)c1COc1ccc(-c2cc3n(c(=O)n2)CCN3C)cn1 [Compound 41, 7-(6-((3-(4-fluorophenyl)-5-methylisoxazol-4-yl)methoxy)pyridin-3-yl)-1-methyl-2,3-dihydroimidazo[1,2-c]pyrimidin-5(1H)-one] | 47 |
